Here are results for 33 molecules from the METLIN SMRT retention time set (Domingo-Almenara et al. 2019).

The nature of this data set: gradient 5% acetonitrile 3 min, to 50% in 2 min, to 85% in 15 min, held 3 min, 100 µL/min. The conditions noted are these: column: Zorbax Extend-C18 2.1 x 50 mm; eluents: water / acetonitrile, 0.1% formic acid. In a few lines:
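Over 3 months, pure standards in mixtures of ~100 molecules were run by HPLC coupled to a quadrupole time-of-flight mass spectrometer in positive and negative ionization mode. The column was a Zorbax Extend-C18 (2.1 × 50 mm, 1.8 μm) at 100 μL/min, eluted with water and acetonitrile each holding 0.1% formic acid, with 40 μL dead and 900 μL dwell volumes. Retention time was determined from adduct peaks chosen by software and checked manually.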
For the molecule `Cc1cccc(NC(=O)C2CCN(S(=O)(=O)c3cc(C(=O)N4CCC(C)CC4)n(C)c3)CC2)n1`, the RP-LC retention time came out at 722 s.
The same measure for `CCCN(CCC)c1nc(C(=O)OCC)nc2ccccc12`: 812 s; for `CC(C)N1CCn2cc(S(=O)(=O)Nc3ccc(F)c(F)c3)cc2C1=O`: 794 s.
The same measure for `Cc1nc2cccnc2n1C1CCN(C(=O)Nc2ccc(Br)cc2)CC1`: 669 s; for `CNC(=O)Nc1ccc(C2(C(=O)N3CCN(c4ccccc4F)CC3)CCC2)cc1`: 799 s; for `Cc1noc2nc(CCC(=O)NCc3ccccn3)nc(N3CC(C)CC(C)C3)c12` (stereo not drawn): 690 s.
The same measure for `CC(=O)NCC(=O)N1CCCn2ccnc2C1C1CCCC1` (stereo not drawn): 625 s; for `Cc1cc(C(=O)NC(C)CCc2ccccc2)n(-c2ccccc2)n1` (stereo not drawn): 942 s; for `O=C(C1CCN(c2ncnc3c2oc2ccccc23)CC1)N1CCN(c2cccc(Cl)c2)CC1`: 930 s.
The molecule `CN(CC1CCOCC1)C(=O)c1ccsc1` came in with an RP-LC retention time of 643 s.
As for `Cc1cccc(NC(=O)CSc2cc(N3CCC(C)CC3)ncn2)c1`, the RP-LC retention time came out at 1040 s.
Consider `Cc1c(NC(=O)c2sc3cc(F)ccc3c2Cl)c(=O)n(-c2ccccc2)n1C`, for which the RP-LC retention time worked out at 756 s.
The same measure for `Cc1sc2nc(SCC(=O)Nc3ccc(S(N)(=O)=O)cc3)nc(N)c2c1C`: 682 s; for `CC(=O)NCCn1c(SCC(=O)OCc2ccccc2)nc2ccccc2c1=O`: 767 s; for `CCn1c(=O)sc2cc(S(=O)(=O)N3CCC(C(=O)NCc4cccc(C)c4)CC3)ccc21`: 932 s.
Regarding `CCSCC[C@@H](NC(=O)CCc1c(C)c2ccc(O)c(C)c2oc1=O)C(=O)O`, the RP-LC retention time was determined as 680 s.
`COc1ccc(OC)c(NC(=O)N2CCC(N3CCN(Cc4ccccc4)C3=O)CC2)c1` showed an RP-LC retention time of 828 s.
To `Cc1nc(-c2cn(C(C)C)c3ncccc23)sc1C(=O)N1CCN(CC(C)C)CC1` belongs 661 s.
Regarding `COc1ccc(NC(=O)C(C)C2CCN(C(=O)Nc3ccc(Cl)cc3)CC2)c(OC)c1` (stereo not drawn), the RP-LC retention time was determined as 898 s.
`CCn1ncc(NC(=O)COc2ccc(C(C)C)cc2)c(N2CCOCC2)c1=O`: the RP-LC retention time came out at 1050 s.
To `CCCN1C(=O)COc2ccc(-c3noc(Cc4cccc(F)c4)n3)cc21` belongs 1100 s.
The same measure for `CCc1cccc(C)c1NC(=O)Cn1c(CC)nc2c(c1=O)CN(Cc1ccccc1)CC2`: 677 s.
To `CCNC(=O)N1[C@H]2CC[C@@H]1c1cnc(-c3ccc(F)cc3)nc1C2` belongs 768 s; to `CCNc1nccc(N2CCC(CC(=O)NCC(C)C)CC2)n1`, 563 s.
In turn, `CC(C)(C)CC(=O)NCCc1noc(C2CC2)n1` showed an RP-LC retention time of 713 s.
Take `Cc1ccc(N2CC(C(=O)Nc3ccc4c(c3)C(=O)N3CCCCC3CCO4)CC2=O)cc1` (stereo not drawn): the RP-LC retention time stood at 762 s.
In turn, `CCC(=O)N1CCc2sc(C(=O)N3CCN(c4ccccc4F)CC3)cc2C1` displayed an RP-LC retention time of 827 s.
Take `CS(=O)(=O)c1ccccc1C(=O)Nc1nc(-c2cc(Cl)sc2Cl)cs1`: the RP-LC retention time stood at 1030 s.
To `CCn1c(=O)c(N2CCN(C(=O)Nc3ccccc3Br)CC2)nc2ccccc21` belongs 1010 s.
In turn, `CSc1cccc(NC(=O)Cn2nc(-n3cccc3)c3c(C)cc(C)nc32)c1` yielded an RP-LC retention time of 1080 s.
`CCOc1nc2ccccc2nc1N1CCCC(C(=O)Nc2ccc(F)cc2)C1` (stereo not drawn) showed an RP-LC retention time of 1190 s.
The same measure for `O=C(CC(SCCO)c1ccc([N+](=O)[O-])cc1)c1ccco1` (stereo not drawn): 715 s.
The same measure for `Cc1ccc(C2(C)NC(=O)NC2=O)cc1` (stereo not drawn): 604 s.
